# Paper PMC8496086 (RSC Chemical Biology, 2021)
# Key:
# NNMT = conditions: read-out: reported IC50 value; cited from earlier work
# [1] = test system: human aortic endothelial cells (HAEC); assay: MNA production in HAEC cells; type: cell-based; conditions: 1 and 10 μM compound, 100 μM nicotinamide, 10 μM SAM, 3 hours
# [2] = test system: A549 lung carcinoma cells; assay: MNA production in A549 cells; type: cell-based, human; conditions: 1 and 10 μM compound, 100 μM nicotinamide, 10 μM SAM, 1 h
smiles,measurement,setting,value
"CNc1ccc(C(N)=O)cn1 [Peptide 6-MANA, 6-methylamino-nicotinamide]",IC50,NNMT,588 ± 75 nM
same,effect on concentration of MNA,[1],significant reduction of MNA concentration
same,effect on concentration of MNA,[2],significant reduction of MNA concentration
